For assay [1], the system named is dextran-labeled vesicles carrying MHC class II molecules in astrocytes. Kind of assay: Mobility of Alexa Fluor 546 dextran-labeled MHC class II vesicles in control and IFNγ activated astrocytes. The format is cell-based. Particulars: for average vesicle maximal displacement / average vesicle track length: FIG. 4. From the text:
(§1) Cell organelles are stained by commercially available dyes and/or by cell transfection. E.g. peptidergic secretory vesicles are labeled by cell transfection for the secretory peptide—pro-atrial natriuretic peptide tagged with emerald green fluorescent protein (ANP.emd; see Han et al., Proc Natl Acad Sci USA. 1999; 96:14577-14582; Krian et al., J. Neurosci. 2003; 23(5):1580-3.). Glutamatergic vesicles are stained by cell transfection for vesicular glutamate transporter 1 tagged with green fluorescent protein (VGLUT1-GFP). ATP containing vesicles are stained by incubation of cells in quinacrine dihydrochloride (1 μM, 15 min at room temperature) (Pangrsic et al., J Biol. Chem. 2007; 28; 282(39):28749-58) and endosomes/lysosomes by incubation of cells in LysoTracker Red DND-99 (200 nM, 5 min, RT, Invitrogen) (Potokar et al., Glia. 2010; 58(10):1208-19). To observe MHC class II expression cells are loaded with 0.1 mg/ml Alexa Fluor^546 dextran (Molecular Probes, Invitrogen) for 16 hours at 37° C.
Cell cultures are treated with the biologically active substances (i.e. constituents of sera, cerebrospinal fluid and other biologically relevant small inorganic and organic substances, other related substances and mixtures of these), or with the reference standard compound, which consists of FTY720 and FTY720-phosphate (FTY720-P) in ratio from 1:0.1 to 1:100, dissolved in cell culture medium for 10 min at 18-37° C. To observe augmentation of the MHC class II molecule expression, cells are treated with interferon gamma (IFN-γ) for 48 hours at 37° C. or any other stimulant of the antigen presentation.
(§2) Cell loaded coverslips are then rinsed with extracellular solution (consisting of 10 mM HEPES/NaOH (pH 7.2), 10 mM D-glucose, 130 mM NaCl, 2 mM CaCl2, 2 mM MgCl2, and 5 mM KCl) and observed by fluorescence microscopy at 63× or 100× magnification using 488 nm Ar—Ion laser excitation (for ANP.emd, VGLUT1-GFP and quinacrine dihydrochloride) or 543 nm He—Ne laser exitation (for LysoTracker Red DND-99, Alexa Fluor^546 dextran), and band-pass filtered at 505-530 nm or long-pass filtered at 560 nm. Time-lapse fluorescence images are acquired at 0.5-2 Hz for 1-10 minutes to monitor vesicle mobility.
Cells can be stimulated with adenosine triphosphate (ATP) or any other stimulus of exocytotic release to record vesicle mobility and secretion before and after cell stimulation.
(§3) Vesicle traffic is analyzed by particle tracking software previously described (Potokar et al.; Biochem Biophys Res Commun. 2005; 329(2):678-83).
(§4) Several mobility parameters are determined for variable time epochs typically lasting 10-60 seconds: step length (displacement of a vesicle within the two successive frames), speed, track length (TL; the total path traveled by a vesicle within the defined time epoch), the vesicle maximal displacement (MD; a measure for the net translocation of a vesicle within the defined time epoch; cf. Wacker et al., J Cell Sci 110 (Pt 13):1453-63), the angle of MD and the directionality index (DI; the ratio of MD to TL).
The example of vesicle mobility modulation in relation to the antigen presentation in IFNγ activated astrocytes. […] Therefore the mobility analysis of dextran-labeled vesicles can be applied to describe the modulated mobility of the vesicles carrying MHC class II molecules upon stimulation of antigen presentation in astrocytes. […]

For assay [2], the system named is secretory vesicles in transfected astrocytes expressing ANP.emd. Kind of assay: Mobility of fluorescently labeled (ANP.emd) secretory vesicles in cultured astrocytes, particle tracking of time-lapse fluorescence images. The format is cell-based, rat. Particulars: for mean vesicle track length (TL) / mean vesicle maximal displacement (MD): 10 μM sphingosine, versus standard reference compound (Stand), 15 s epochs; for mean vesicle track length (TL): FIG. 2E; for mean vesicle maximal displacement (MD): FIG. 2F. The protocol:
Cultured astrocytes, e.g. isolated as previously described by Schwartz & Wilson (Glia. 1992; 5(1):75-80) or any other cell type isolated from animal tissues or clonal cell lines derived from human or animal sources are seeded onto coverslips and maintained in an adequate cell cultured medium.
as §1
Cell cultures are treated with the biologically active substances (i.e. constituents of sera, cerebrospinal fluid and other biologically relevant small inorganic and organic substances, other related substances and mixtures of these), or with the reference standard compound, which consists of FTY720 and FTY720-phosphate (FTY720-P) in ratio from 1:0.1 to 1:100, dissolved in cell culture medium for 10 min at 18-37° C. […]
as §2, §3, §4
Example of the analysis of biologically active substances, such as sphingosine and immunoglobulin G (IgG) from human serum, on the mobility of secretory vesicles with respect to the effect of the standard compound, which is also the subject of the present invention. The example is shown in FIGS. 2E and F. The mobility of fluorescently labeled vesicles in transfected astrocytes expressing ANP.emd was analyzed by particle analyzing program Track2 and quantitative parameters of vesicle mobility were determined. […]

Assay [3] deals with MHC class II molecules in astrocytes. Kind of assay: MHC class II expression in astrocytes by immunostaining and fluorescence microscopy. The format is cell-based. Particulars: IFNγ treated versus control astrocytes; overlay with dextran loaded structures; FIG. 3.
Excerpt: as §1, with “C. […]” for “C.”

Setting [4] is: cell stimulation with 1 mM ATP, control and IFNγ treated cells.
The mark [5] stands for this setting: IFNγ treated astrocytes versus non-treated control cells (Spon.).

`Nc1ncnc2c1ncn2[C@@H]1O[C@H](COP(=O)(O)OP(=O)(O)OP(=O)(O)O)[C@@H](O)[C@H]1O` [ATP, adenosine triphosphate]: in assay [1] (setting [4]), the “average vesicle maximal displacement” value is “reduces” and the “average vesicle track length” value is reported as “reduces”.
Consider `CCCCCCCCCCCCC/C=C/[C@@H](O)[C@@H](N)CO` [sphingosine], for which, in assay [2], the “mean vesicle track length (TL)” value is “significantly attenuates” and the “mean vesicle maximal displacement (MD)” value is given as “significantly attenuates”. In addition, in assay [2] (listed as Sphingosine), the “mean vesicle track length (TL)” value is recorded as “strongly attenuates” and the “mean vesicle maximal displacement (MD)” value is on record as “strongly attenuates”. For the same molecule, the vesicle mobility result in assay [2] (dependence on extracellular concentration, regions near the plasmalemma and deeper in the cytoplasm) is on record as “dose-dependently attenuated”.

B1: IFNγ: cytokine interferon gamma (protein, UniProt P01579 24-161, looked up)
Interferon gamma: QDPYVKEAENLKKYFNAGHSDVADNGTLFLGILKNWKEESDRKIMQSQIVSFYFKLFKNFKDDQSIQKSVETIKEDMNVKFFNSNKKKRDDFEKLTNYSVTDLNVQRKAIHELIQVMAELSPAAKTGKRKRSQMLFRG
As for B1, the “expression of MHC class II molecules” value in assay [3] is “induces”. Also, in assay [1] (setting [5]), the “average vesicle maximal displacement” value is “significantly increase” and the “average vesicle track length” value is given as “significantly increase”. The “mobility, in particular long-range mobility, of MHC class II-positive vesicles” value in assay [1] (astrocytes exposed to interferon-γ) is reported as “enhanced”.

(Values after patent US20140178892A1, “SCREENING METHODS BASED ON VESICLE MOBILITY” (priority 2011, published 2014).)
